In the NIST ThermoML archive (doi:10.1016/j.jct.2017.08.004):

Assay: molar heat capacity at constant pressure
Conditions: 101.33 kPa, Crystal

O[C@H]1[C@H](O)[C@@H](O)[C@H](O)[C@@H](O)[C@H]1O [cis-1,2,3,5-trans-4,6-cyclohexanehexol]
molar heat capacity at constant pressure [J/K/mol]
Conditions | Small sample (50 mg) DSC | relaxation calorimetry
1 K | – | 0.00189
1.926 K | – | 0.009609
2 K | – | 0.0108
2.127 K | – | 0.01292
2.354 K | – | 0.01758
2.61 K | – | 0.02281
2.904 K | – | 0.03148
3 K | – | 0.03479
3.219 K | – | 0.04281
3.569 K | – | 0.0586
3.959 K | – | 0.08072
4 K | – | 0.08367
4.391 K | – | 0.1121
4.872 K | – | 0.1562
5 K | – | 0.1693
5.405 K | – | 0.2182
5.998 K | – | 0.3056
6 K | – | 0.3048
6.654 K | – | 0.4273
7 K | – | 0.5031
7.388 K | – | 0.5992
8 K | – | 0.7731
8.198 K | – | 0.8347
9 K | – | 1.113
9.101 K | – | 1.15
10 K | – | 1.523
10.15 K | – | 1.591
11.25 K | – | 2.131
12.48 K | – | 2.827
13.85 K | – | 3.674
15 K | – | 4.447
15.39 K | – | 4.714
17.07 K | – | 5.945
18.96 K | – | 7.393
20 K | – | 8.193
21.04 K | – | 8.992
23.37 K | – | 10.83
25 K | – | 12.09
25.95 K | – | 12.77
28.81 K | – | 14.98
30 K | – | 15.9
32 K | – | 17.42
35 K | – | 19.73
35.5 K | – | 20.13
39.37 K | – | 23.3
40 K | – | 23.68
43.71 K | – | 26.66
45 K | – | 27.69
48.5 K | – | 30.26
50 K | – | 31.58
53.84 K | – | 34.36
55 K | – | 35.27
59.75 K | – | 39.03
60 K | – | 39.12
65 K | – | 43.04
66.32 K | – | 44.21
70 K | – | 47.02
73.64 K | – | 49.9
75 K | – | 51.04
80 K | – | 55.09
81.73 K | – | 56.7
85 K | – | 59.15
90 K | – | 63.21
90.71 K | – | 63.72
95 K | – | 67.25
100 K | – | 71.28
100.66 K | – | 71.12
110 K | – | 79.22
110.79 K | – | 79.63
120 K | – | 87.03
120.83 K | – | 87.98
130 K | – | 94.69
130.89 K | – | 95.77
140 K | – | 102.22
141.02 K | – | 103.28
150 K | – | 109.64
151.12 K | – | 110.61
160 K | – | 116.97
161.24 K | – | 117.92
170 K | – | 124.22
171.29 K | – | 125.13
180 K | – | 131.43
181.39 K | – | 132.46
188.15 K | 132.1 | –
189.15 K | 133.01 | –
190 K | – | 138.61
190.15 K | 134.04 | –
191.15 K | 134.87 | –
191.48 K | – | 139.61
192.15 K | 135.65 | –
193.15 K | 136.44 | –
194.15 K | 137.52 | –
195.15 K | 138.44 | –
196.15 K | 139.45 | –
197.15 K | 140.42 | –
198.15 K | 141.25 | –
199.15 K | 142.04 | –
200 K | – | 145.78
200.15 K | 142.99 | –
201.15 K | 143.81 | –
201.58 K | – | 146.36
202.15 K | 144.76 | –
203.15 K | 145.49 | –
204.15 K | 146.25 | –
205.15 K | 147.12 | –
206.15 K | 147.9 | –
207.15 K | 148.76 | –
208.15 K | 149.37 | –
209.15 K | 150.17 | –
210 K | – | 152.96
210.15 K | 150.93 | –
211.15 K | 151.82 | –
211.7 K | – | 153.74
212.15 K | 152.59 | –
213.15 K | 153.21 | –
214.15 K | 154.05 | –
215.15 K | 154.79 | –
216.15 K | 155.5 | –
217.15 K | 156.37 | –
218.15 K | 157.24 | –
219.15 K | 158 | –
220 K | – | 160.15
220.15 K | 158.66 | –
221.15 K | 159.51 | –
221.79 K | – | 161.31
222.15 K | 160.36 | –
223.15 K | 161.11 | –
224.15 K | 161.84 | –
225.15 K | 162.58 | –
226.15 K | 163.3 | –
227.15 K | 164.03 | –
228.15 K | 164.76 | –
229.15 K | 165.48 | –
230 K | – | 167.37
230.15 K | 166.09 | –
231.15 K | 166.87 | –
231.88 K | – | 168.69
232.15 K | 167.66 | –
233.15 K | 168.47 | –
234.15 K | 169.23 | –
235.15 K | 169.98 | –
236.15 K | 170.76 | –
237.15 K | 171.54 | –
238.15 K | 172.36 | –
239.15 K | 173.06 | –
240 K | – | 174.63
240.15 K | 173.81 | –
241.15 K | 174.61 | –
241.96 K | – | 176.25
242.15 K | 175.4 | –
243.15 K | 176.08 | –
244.15 K | 176.84 | –
245.15 K | 177.49 | –
246.15 K | 178.19 | –
247.15 K | 178.89 | –
248.15 K | 179.65 | –
249.15 K | 180.32 | –
250 K | – | 181.94
250.15 K | 181.03 | –
251.15 K | 181.9 | –
251.99 K | – | 183.44
252.15 K | 182.55 | –
253.15 K | 183.36 | –
254.15 K | 184.08 | –
255.15 K | 184.96 | –
256.15 K | 185.78 | –
257.15 K | 186.45 | –
258.15 K | 187.25 | –
259.15 K | 188.05 | –
260 K | – | 189.3
260.15 K | 188.81 | –
261.15 K | 189.58 | –
262.11 K | – | 191.23
262.15 K | 190.24 | –
263.15 K | 191.02 | –
264.15 K | 191.84 | –
265.15 K | 192.51 | –
266.15 K | 193.18 | –
267.15 K | 194.11 | –
268.15 K | 194.88 | –
269.15 K | 195.58 | –
270 K | – | 196.73
270.15 K | 196.44 | –
271.15 K | 197.16 | –
272.15 K | 197.91 | –
272.17 K | – | 198.87
273.15 K | 198.7 | 199.08
274.15 K | 199.42 | –
275.15 K | 200.19 | –
276.15 K | 201.09 | –
277.15 K | 201.63 | –
278.15 K | 202.4 | –
279.15 K | 203.19 | –
280 K | – | 204.22
280.15 K | 203.91 | –
281.15 K | 204.75 | –
282.15 K | 205.45 | –
282.18 K | – | 206.06
283.15 K | 206.13 | –
284.15 K | 206.78 | –
285.15 K | 207.67 | –
286.15 K | 208.29 | –
287.15 K | 208.96 | –
288.15 K | 209.73 | –
289.15 K | 210.44 | –
290 K | – | 211.78
290.15 K | 211.29 | –
291.15 K | 212.09 | –
292.15 K | 212.8 | –
292.29 K | – | 213.34
293.15 K | 213.54 | –
294.15 K | 214.44 | –
295.15 K | 215.31 | –
296.15 K | 216.01 | –
297.15 K | 216.77 | –
298.15 K | 217.6 | 218
299.15 K | 218.39 | –
300 K | – | 219.42
300.15 K | 219.12 | –
301.15 K | 219.99 | –
302.15 K | 220.81 | –
302.4 K | – | 220.86
303.15 K | 221.72 | –
304.15 K | 222.56 | –
305 K | 223.54 | –
305.15 K | 223.48 | –
306.15 K | 224.53 | –
307.15 K | 225.41 | –
308.15 K | 226.47 | –
309.15 K | 227.45 | –
310 K | 228.25 | –
310.15 K | 228.42 | –
311.15 K | 229.32 | –
312.15 K | 230.3 | –
313.15 K | 231.18 | –
314.15 K | 232.03 | –
315 K | 232.85 | –
